Entries after “also recorded” stand apart in the source; their conditions may differ.

These results are taken from PMC12693327, “SERAAK2 as a Serotonin Receptor Ligand: Structural and Pharmacological In Vitro and In Vivo Evaluation” (Molecules, 2025).

The target of one series is 5-HT1A receptor. Details: method as in PMID 38619283. The following applies: cited from earlier work.
The test system of series [1] is mice. The series is described as follows: Spontaneous locomotor activity. It counts as in vivo. The following applies: 60 min before test. As to the method: (§1) The investigated compound (SER2AAK2) was bought from Enamine (purity over 95%) and in all tests was administered intraperitoneally (i.p.), spread in a drop of Tween 80, and diluted with an aqueous solution of 0.5% methylcellulose (tylose) and injected 60 min before the tests in a volume of 10 mL/kg. Control groups received tylose injections of the same volume and via the same route of administration.
(§2) Locomotor activity of the mice was assessed using the Opto-Varimex-4 Auto-Track system (Columbus Instruments, OH, USA). Each mouse was placed individually in a testing cage for 25 min—5 min for acclimatization, followed by 20 min of activity recording. (6a) The total distance traveled (in centimeters) was measured. Cages were cleaned with 10% ethanol between sessions.

For series [2], the system named is mice. The series is described as follows: Motor coordination, chimney test. Type of series: in vivo. The following applies: 7.5 mg/kg i.p., 60 min before test, similar to control. As to the method:
as §1
The effects of the SER2AAK2 compound were also measured in the rotarod and chimney tests. In the rotarod test, mice were evaluated for their ability to maintain balance on a constantly rotating rod (18 rpm) for 1 min. The chimney test involved placing a mouse in a horizontal polymer tube (3 cm diameter, 25 cm length). Once the mouse reached the far end, the tube was positioned vertically, requiring the animal to climb backwards to exit. Right motor coordination was defined as exiting the chimney within 60 s. Prior to testing, mice underwent a 3-day training. Only those animals that were able to stay on the rotating rod or leave the chimney within the required time were included in the study.

Another series has as its target T1, CYP3A4 (Homo sapiens, UniProt P08684).
T1 construct: purchased Promega
As to the kind of experiment: CYP3A4 luminescent luciferase-based assay (Glo kit). It counts as in vitro ADME. The following applies: mean ± SEM, two experiments, n = 3 each, read-out: CYP3A4 Activity Inhibition, Evaluated at the Concentration of 10 µM [% of Inhibition ± SEM]. As to the method: The effect of SERAAK2 on the activity of the cytochrome P450 isoforms CYP3A4 and CYP2D6 was tested using commercial luminescence assays (Glo kits bought from Promega, Medison, WI, USA). The experiment was performed twice with triplicate samples, following the manufacturer’s guidelines and established procedures.

A further series deals with HepG2 cells. The series is described as follows: MTS cytotoxicity assay in HepG2 cells. The following applies: 72 h. Type of series: cell-based, human. As to the method:
(§3) The cytotoxic potential of SERAAK2 was evaluated in two human-derived cell lines chosen for their physiological relevance: HepG2 (hepatocellular carcinoma) and SH-SY5Y (neuroblastoma). […] It is particularly noteworthy that the use of the SERAAK2 compound at a concentration of 30 µM reduces the number of viable cells below the level of the positive control (doxorubicin) at the same concentration (Table 3). […] Under the experimental conditions used, after 72 h of incubation, a fraction of doxorubicin-treated cells remains metabolically active and generates a low signal in the MTS assay. The enhanced signal reduction observed in the MTS assay for the tested compound, compared to doxorubicin, indicates strong cytotoxic activity leading to necrosis of the entire cell population.
(§4) An assessment of the cytotoxic potential of SERAAK2 was carried out utilizing the colorimetric MTS assay. This investigation was executed on both HepG2 and SH-SY5Y cell lines, adhering to an identical procedure. The cell lines, sourced from the American Type Culture Collection (Manassas, VA, USA), were cultured under standard conditions (5% CO2, 37 °C) in DMEM/F12 medium (#31330-038, ThermoFisher Scientific, Waltham, MA, USA). The medium was supplemented with 10% Fetal Bovine Serum (FBS, #A5256801, ThermoFisher Scientific) and a Penicillin–Streptomycin solution (#15140-122, ThermoFisher Scientific) until their use in the study. Cells within passage numbers 15 to 25 were plated in 96-well plates at a density of 5000 cells per well in 200 μL of medium and allowed to adhere during a 24 h incubation at 37 °C with 5% CO2. […] The plates were then subsequently returned to the 37 °C incubator, after which absorbance was recorded with a Spark microplate reader; this measurement occurred after 1 h for the HepG2 line and 3 h for the SH-SY5Y line. The ultimate cell viability percentage was determined by comparing results to the control wells, which represented 100% viability, and the wells treated with 10 μM doxorubicin, which were defined as 0% viability. […]
(In general: Tetrazolium dyes change colour on reduction, which living cells bring about.)

A further series deals with SH-SY5Y cells. As to the kind of experiment: MTS cytotoxicity assay in SH-SY5Y cells. Type of series: cell-based, human. The following applies: 72 h. How it is done: as §3, §4
Series [3] is described as follows: PAMPA membrane permeability. It counts as in vitro ADME. To be noted: 100 µM in PBS pH 7.4, 5 h. How it is done: In this study, PAMPA was employed to evaluate the passive diffusion of SERAAK2 through a lipid-infused artificial membrane.
The membrane permeability assay was conducted employing the pre-coated PAMPA Plate System Gentest from Corning (Tewksbury, MA, USA), following the manufacturer’s provided instructions. SERAAK2, along with reference compounds, were prepared in PBS buffer at a pH of 7.4 to reach a final concentration of 100 µM, and these solutions were loaded onto the donor plate of the 96-well system. […] The permeability coefficient (Pe, expressed in cm/s) was subsequently derived by applying the calculation formula supplied by the manufacturer of the PAMPA system.

In series [4] the test system is mice. The series is described as follows: Amphetamine-induced hyperactivity. It counts as in vivo. The following applies: 7.5 mg/kg i.p. 60 min before test, amphetamine 3 mg/kg 30 min later. How it is done:
as §1, §2

The subject of the next series is dopamine D2 receptor. Details: method as in PMID 38619283. The following applies: cited from earlier work.

T1 sequence (P08684 whole entry): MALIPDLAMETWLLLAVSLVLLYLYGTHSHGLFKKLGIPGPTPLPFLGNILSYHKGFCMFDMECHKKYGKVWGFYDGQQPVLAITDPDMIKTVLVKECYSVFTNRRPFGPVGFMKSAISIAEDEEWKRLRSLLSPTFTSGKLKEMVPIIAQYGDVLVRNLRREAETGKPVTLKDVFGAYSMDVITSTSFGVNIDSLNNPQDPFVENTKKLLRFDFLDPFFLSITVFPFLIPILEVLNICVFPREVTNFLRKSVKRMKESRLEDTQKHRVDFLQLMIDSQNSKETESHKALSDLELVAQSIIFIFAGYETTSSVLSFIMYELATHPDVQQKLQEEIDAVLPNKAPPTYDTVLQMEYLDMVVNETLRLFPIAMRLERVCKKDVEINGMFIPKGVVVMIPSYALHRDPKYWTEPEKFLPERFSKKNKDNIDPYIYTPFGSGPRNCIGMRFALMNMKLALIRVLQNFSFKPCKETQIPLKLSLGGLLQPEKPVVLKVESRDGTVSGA

In general, Ki refers to the dissociation constant of the complex between target and ligand, obtained from inhibition or displacement. With `OC(CNCCc1c[nH]c2ccccc12)COc1ccc(Oc2ccccc2)cc1` (centres unmarked) [SERAAK2], the Ki at 5-HT1A receptor is 0.153 ± 0.0004 µM. Further, the Spontaneous locomotor activity result is “inactive; also recorded: no effect” with mice [1] (mice, 7.5 mg/kg i.p., 7.5 mg/kg); “statistically significant reduction in locomotor activity; also recorded: reduced activity” in the series on mice [1] (mice, 60, 30 and 15 mg/kg i.p., 20 min recording). Further, in the series on mice [2], the “time to leave the chimney” value was “about 13 s”. In addition, the inhibition at 10 µM at CYP3A4 is 0%. The “cytotoxic effects in HepG2 cells” value in the series on HepG2 cells (0.3 µM) is “no cytotoxic effects”. The HepG2 cell viability in the series on HepG2 cells (3 µM) is on record as 85 % of the control. In addition, the “Percentage Reduction in the Number of Viable HepG2 Cells [Mean ± SEM]” value in the series on HepG2 cells (30 µM) is listed as 104 ± 1%. In addition, the “cytotoxic effects in SH-SY5Y cells” value in the series on SH-SY5Y cells (0.3 µM) was “no cytotoxic effects”. Besides, the “Percentage Reduction in the Number of Viable SH-SY5Y Cells [Mean ± SEM]” value in the series with SH-SY5Y cells (30 µM) worked out at 108 ± 1%. Further, the “Pe ± SD” value in [3] is 1.1 ×10⁻⁶ cm/s. Further, the Papp at 5 h, 100 µM in [3] (read-out: Pe ± SD) is 1.1 ± 0.35 ×10⁻⁶ cm/s. Besides, the amphetamine-induced hyperactivity result with mice [4] is given as “did not significantly modify this hyperactivity; also recorded: no effect”. In addition, the “percent of inhibition at 10 μM, dopamine D2 receptor” value in the series with dopamine D2 receptor was 23 ± 6%.
